The series concerns Ctenocephalides felis. The procedure:
b) Ctenocephalides felis Adulticide Assay: C. felis Single Dose Screen
Mortality of fleas was the primary endpoint in the assay. Fleas were considered dead if they didn't move or were on their sides and unable to walk or right themselves. […] The concentration chosen (1.26 μg/cm^2) was higher than that known to kill 90% of cat fleas (LC90) using the reference compound, permethrin.
The test species was the cat flea (Ctenocephalides felis). The strain used was obtained from external suppliers as pupae and held in the laboratory under testing conditions until the adults had emerged. Fifteen (15) fleas were used in a minimum of four replicates against a single concentration level (approximately 60 fleas). The insects were selected to be in the adult life stage, aged between 3 and 7 days post emergence.
The compounds to be tested were supplied as solids and were prepared in acetone as described below prior to testing. Samples were stored in a refrigerator (5±1° C.) unless otherwise specified.
During the mortality testing, the temperature was maintained at 25±1° C. Humidity was maintained at 75±5%. The base (area=159 mm^2) of a 100 mL glass Erlenmeyer (conical) flask provided the treatment surface. Flasks were pretreated with Coatasil™ glass treatment to maximise bio-availability of test compounds by preventing them from binding to glass the surface. The base of the 100 mL Erlenmeyer flask was treated with 0.5 mL of test sample in acetone and gently swirled. This volume was sufficient to cover the base of the flask. Flasks were left to dry for 24 hours before flea exposure.
Adult cat fleas were placed into a sorting chamber, which allowed fleas to jump into the Erlenmeyer flasks. Fifteen (15) adult cat fleas were collected in each flask. The top of the flasks were then covered in Parafilm™ and small holes were made to allow gas exchange. A 0.5 mL volume of acetone as a solvent control was applied to the base of an Erlenmeyer flask and the testing proceeded in the same manner described above. Cat fleas in the treatment containers were held under testing conditions for 8, 24 and/or 48 hours. Mortality was recorded at 8, 24, 8 and 24, or 24 and 48 hours Pooled 8, 24, 8 and 24, and 24 and 48 hour mortality data were converted to percentages and are summarized by Table 21, below.

The values that follow come from patent US20070238700A1, “N-PHENYL-1,1,1-TRIFLUOROMETHANESULFONAMIDE HYDRAZONE DERIVATIVE COMPOUNDS AND THEIR USAGE IN CONTROLLING PARASITES” (priority 2006, published 2007).

Where two headings read alike, the source gives them in different places.

Consider `CC(=O)N(N=C(C)c1cc(Cl)ccc1NS(=O)(=O)C(F)(F)F)c1ccccc1` [Compound 183], for which the “C. felis Mortality (%) 8 h” value came to 2% and the “C. felis Mortality (%) 24 h” value is on record as 22%.
As for `CC(=Nn1c(=O)oc2ccccc21)c1cc(Cl)ccc1NS(=O)(=O)C(F)(F)F` [Compound 184, N-[4-Chloro-2-(1-(2(3H)-oxo-benzoxazol-3-yl)imino)ethylphenyl]-trifluoromethanesulfonamide], the “C. felis Mortality (%) 8 h” value is 2% and the “C. felis Mortality (%) 24 h” value came to 12%.
`CC(=Nn1cccn1)c1cc(Cl)ccc1NS(=O)(=O)C(F)(F)F` [Compound 185]: the “C. felis Mortality (%) 8 h” value (8 h, data from laboratory 1) came to 2%. Further, the “C. felis Mortality (%) 24 h” value (24 h, data from laboratory 1) is recorded as 11%.
Take `CC(=Nn1cnc2ccccc2c1=O)c1cc(Cl)ccc1NS(=O)(=O)C(F)(F)F` [Compound 186, N-[4-Chloro-2-(1-{4(3)-oxo-quinazolin-3-yl}imino)ethylphenyl]-trifluoromethanesulfonamide]: the “C. felis Mortality (%) 8 h” value was 2% and the “C. felis Mortality (%) 24 h” value is 12%.
`C/C(=N\N1C(=O)NC(C)(C)C1=O)c1cc(Cl)ccc1NS(=O)(=O)C(F)(F)F` [Compound 187]: the “C. felis Mortality (%) 8 h” value (8 h, data from laboratory 1) is 5%. Also, under “24 h, data from laboratory 1”, the “C. felis Mortality (%) 24 h” value is reported as 19%.
Regarding `CC(=Nn1cnc2ccccc21)c1cc(Cl)ccc1NS(=O)(=O)C(F)(F)F` [Compound 188], the “C. felis Mortality (%) 8 h” value (8 h, data from laboratory 1) is on record as 2%. Further, the “C. felis Mortality (%) 24 h” value (24 h, data from laboratory 1) worked out at 7%.
Consider `CC(=Nn1cc2ccccc2n1)c1cc(Cl)ccc1NS(=O)(=O)C(F)(F)F` [Compound 189], for which the “C. felis Mortality (%) 8 h” value (8 h, data from laboratory 1) turned out to be 0%. Besides, the “C. felis Mortality (%) 24 h” value (24 h, data from laboratory 1) amounted to 2%.
For `CC(=NN(C)c1ncccn1)c1cc(Cl)ccc1NS(=O)(=O)C(F)(F)F` [Compound 190], the “C. felis Mortality (%) 8 h” value is 2% and the “C. felis Mortality (%) 24 h” value amounted to 15%.
In the case of `CC(=NN1CCN(C)CC1)c1cc(Cl)ccc1NS(=O)(=O)C(F)(F)F` [Compound 191], where the note is “8 h, data from laboratory 1”, the “C. felis Mortality (%) 8 h” value worked out at 2%. For the same compound, the “C. felis Mortality (%) 24 h” value (24 h, data from laboratory 1) turned out to be 48%.
As to `CC(=Nn1c(C)n[nH]c1=O)c1cc(Cl)ccc1NS(=O)(=O)C(F)(F)F` [Compound 192], the “C. felis Mortality (%) 8 h” value (8 h, data from laboratory 1) turned out to be 3%. Further, the “C. felis Mortality (%) 24 h” value (24 h, data from laboratory 1) is on record as 5%.
Regarding `CC(=Nn1ncc2ccccc21)c1cc(Cl)ccc1NS(=O)(=O)C(F)(F)F` [Compound 193], the “C. felis Mortality (%) 8 h” value (8 h, data from laboratory 1) worked out at 2%. The “C. felis Mortality (%) 24 h” value (24 h, data from laboratory 1) came to 9%.
Turning to `CC(=NN(C)c1ccc(Cl)nn1)c1cc(Cl)ccc1NS(=O)(=O)C(F)(F)F` [Compound 194], the “C. felis Mortality (%) 8 h” value (8 h, data from laboratory 1) came to 0%. In addition, the “C. felis Mortality (%) 24 h” value (24 h, data from laboratory 1) is listed as 5%.
For the compound `CC(=NN(C)c1ccccn1)c1cc(Cl)ccc1NS(=O)(=O)C(F)(F)F` [Compound 195], for the setting “8 h, data from laboratory 1”, the “C. felis Mortality (%) 8 h” value is recorded as 2%. Besides, the “C. felis Mortality (%) 24 h” value (24 h, data from laboratory 1) is reported as 30%.
Taken in the same sequence, the figures for `CC(=NN(C)c1ccc(Cl)cn1)c1cc(Cl)ccc1NS(=O)(=O)C(F)(F)F` [Compound 196] were 3% and 32%.
Taken in the same sequence, the figures for `CC(=NN(C)c1cccc(Cl)n1)c1cc(Cl)ccc1NS(=O)(=O)C(F)(F)F` [Compound 197] were 7% and 23%.
`CC(=NN(C)c1ccc2ccccc2n1)c1cc(Cl)ccc1NS(=O)(=O)C(F)(F)F` [Compound 198]: under “8 h, data from laboratory 1”, the “C. felis Mortality (%) 8 h” value came out at 2%. For the same compound, the “C. felis Mortality (%) 24 h” value (24 h, data from laboratory 1) is reported as 25%.
Taken in the same sequence, the figures for `CC(=Nn1c(=O)[nH]nc(C)c1=O)c1cc(Cl)ccc1NS(=O)(=O)C(F)(F)F` [Compound 199] were 3% and 3%.
With `CCCN(N=C(C)c1cc(Cl)ccc1NS(=O)(=O)C(F)(F)F)c1cccc(Cl)c1Cl` [Compound 200], the “C. felis Mortality (%) 8 h” value (8 h, data from laboratory 1) turned out to be 2%. Also, the “C. felis Mortality (%) 24 h” value (24 h, data from laboratory 1) is on record as 58%.
For `CC(=Nn1c(C)nc2ccccc2c1=O)c1cc(Cl)ccc1NS(=O)(=O)C(F)(F)F` [Compound 201], in that order: 2% and 10%.
Consider `CC(=NN(CCC#N)CCC#N)c1cc(Cl)ccc1NS(=O)(=O)C(F)(F)F` [Compound 202], for which, where the note is “8 h, data from laboratory 1”, the “C. felis Mortality (%) 8 h” value came out at 3%. Under “24 h, data from laboratory 1”, the “C. felis Mortality (%) 24 h” value was 24%.
As to `CC(=NN(C)c1ccccc1C(F)(F)F)c1cc(Cl)ccc1NS(=O)(=O)C(F)(F)F` [Compound 204], the “C. felis Mortality (%) 8 h” value (8 h, data from laboratory 1) turned out to be 6%. Moreover, for the setting “24 h, data from laboratory 1”, the “C. felis Mortality (%) 24 h” value came to 11%.
With `CN(N=C1CCc2cccc(NS(=O)(=O)C(F)(F)F)c21)c1ccccc1` [Compound 205], the “C. felis Mortality (%) 8 h” value (8 h, data from laboratory 1) came out at 12%. The “C. felis Mortality (%) 24 h” value (24 h, data from laboratory 1) is 13%.
With `CC(=NN(C)c1cnccn1)c1cc(Cl)ccc1NS(=O)(=O)C(F)(F)F` [Compound 206], the “C. felis Mortality (%) 8 h” value is reported as 7% and the “C. felis Mortality (%) 24 h” value is listed as 12%.
Consider `C/C(=N\NC(=O)Nc1ccc(OC(F)(F)F)cc1)c1cc(Cl)ccc1NS(=O)(=O)C(F)(F)F` [Compound 207], for which the “C. felis Mortality (%) 8 h” value (8 h, data from laboratory 1) is 5%. Also, the “C. felis Mortality (%) 24 h” value (24 h, data from laboratory 1) is on record as 8%.
On to `C/C(=N\NC(=O)Nc1ccc(C(F)(F)F)cc1)c1cc(Cl)ccc1NS(=O)(=O)C(F)(F)F` [Compound 208], for which the “C. felis Mortality (%) 8 h” value (8 h, data from laboratory 1) stood at 8%. Moreover, for the setting “24 h, data from laboratory 1”, the “C. felis Mortality (%) 24 h” value was found to be 18%.
Take `C/C(=N\N(C)c1nccc2ccccc12)c1cc(Cl)ccc1NS(=O)(=O)C(F)(F)F` [Compound 209]: for the setting “8 h, data from laboratory 1”, the “C. felis Mortality (%) 8 h” value is reported as 7%. Moreover, the “C. felis Mortality (%) 24 h” value (24 h, data from laboratory 1) is reported as 18%.
For the compound `C/C(=N\N(C)c1cnc2ccccc2n1)c1cc(Cl)ccc1NS(=O)(=O)C(F)(F)F` [Compound 210], the “C. felis Mortality (%) 8 h” value (8 h, data from laboratory 1) is 4%. Moreover, the “C. felis Mortality (%) 24 h” value (24 h, data from laboratory 1) amounted to 17%.
As for `CCN(N=C(C)c1cc(Cl)ccc1NS(=O)(=O)C(F)(F)F)C1CCCC1` [Compound 212], the “C. felis Mortality (%) 8 h” value came out at 7% and the “C. felis Mortality (%) 24 h” value is listed as 59%.
As for `CCC(=NN(CC)C1CCCC1)c1cc(Cl)ccc1NS(=O)(=O)C(F)(F)F` [Compound 214], the “C. felis Mortality (%) 8 h” value (8 h, data from laboratory 1) stood at 7%. For the same compound, the “C. felis Mortality (%) 24 h” value (24 h, data from laboratory 1) was found to be 61%.
Take `CCN(N=C(C)c1cc(Cl)ccc1NS(=O)(=O)C(F)(F)F)C1CCCCC1` [Compound 216]: the “C. felis Mortality (%) 8 h” value (8 h, data from laboratory 1) is on record as 0%. In addition, the “C. felis Mortality (%) 24 h” value (24 h, data from laboratory 1) was 52%.
In the case of `CC/C(=N\N(C)C1CCCCC1)c1cc(Cl)ccc1NS(=O)(=O)C(F)(F)F` [Compound 217], under “8 h, data from laboratory 1”, the “C. felis Mortality (%) 8 h” value was determined as 3%. Further, the “C. felis Mortality (%) 24 h” value (24 h, data from laboratory 1) was 48%.
Take `CCC(=NN(CC)C1CCCCC1)c1cc(Cl)ccc1NS(=O)(=O)C(F)(F)F` [Compound 218]: the “C. felis Mortality (%) 8 h” value (8 h, data from laboratory 1) is 5%. Further, where the note is “24 h, data from laboratory 1”, the “C. felis Mortality (%) 24 h” value turned out to be 62%.
For the compound `CN(N=C1CCCc2cccc(NS(=O)(=O)C(F)(F)F)c21)c1ccccc1` [Compound 219, N-[8-(N′-methyl-N′-phenyl)hydrazono-5,6,7,8-tetrahydro-naphthalen-1-yl]-trifluoromethanesulfonamide], the “C. felis Mortality (%) 8 h” value is on record as 0% and the “C. felis Mortality (%) 24 h” value was 2%.
As to `CCC(=O)N(CCC#N)/N=C(\C)c1cc(Cl)ccc1NS(=O)(=O)C(F)(F)F` [Compound 225], the “C. felis Mortality (%) 8 h” value (8 h, data from laboratory 1) was 2%. Further, where the note is “24 h, data from laboratory 1”, the “C. felis Mortality (%) 24 h” value is listed as 73%.
For `O=S(=O)(Nc1ccc(Cl)cc1C1=NN(c2ccccc2)CC1)C(F)(F)F` [Compound 226], in that order: 0% and 28%.
For `O=S(=O)(Nc1ccc(Cl)cc1C1=NN(c2ccccc2F)CC1)C(F)(F)F` [Compound 228], in that order: 14% and 59%.
With `O=S(=O)(Nc1ccc(Cl)cc1C1=NN(c2ccccc2)CC1)C(F)(F)F` [Compound 229, N-[4-Chloro-2-(1-phenyl-4,5-dihydro-1H-pyrazol-3-yl)-phenyl]-trifluoromethanesulfonamide], the “C. felis Mortality (%) 8 h” value (8 h) came out at 18%. For the same compound, the “C. felis Mortality (%) 24 h” value (24 h) is recorded as 37%.
As to `O=S(=O)(Nc1ccc(Cl)cc1-c1ccn(-c2ccccc2)n1)C(F)(F)F` [Compound 230, N-[4-Chloro-2-[1-phenyl-1H-pyrazol-3-yl]-phenyl]-trifluoromethanesulfonamide], where the note is “8 h”, the “C. felis Mortality (%) 8 h” value was 10%. The “C. felis Mortality (%) 24 h” value (24 h) worked out at 43%.
With `O=S(=O)(Nc1ccc(Cl)cc1C1=NN(c2cccc(Cl)c2)CC1)C(F)(F)F` [Compound 231], the “C. felis Mortality (%) 8 h” value (8 h, data from laboratory 1) turned out to be 12%. The “C. felis Mortality (%) 24 h” value (24 h, data from laboratory 1) came out at 42%.
With `O=S(=O)(Nc1ccc(Cl)cc1C1=NN(c2cccc(F)c2)CC1)C(F)(F)F` [Compound 232], the “C. felis Mortality (%) 8 h” value (8 h, data from laboratory 1) was 7%. Moreover, the “C. felis Mortality (%) 24 h” value (24 h, data from laboratory 1) stood at 27%.
Consider `O=S(=O)(Nc1ccc(Cl)cc1C1=NN(c2ccc(F)cc2)CC1)C(F)(F)F` [Compound 233], for which the “C. felis Mortality (%) 8 h” value (8 h, data from laboratory 1) is 9%. Moreover, under “24 h, data from laboratory 1”, the “C. felis Mortality (%) 24 h” value was found to be 28%.
